Measured values as given in patent US8846393B2, “Methods of improving stem cell homing and engraftment” (Gamida-Cell Ltd., priority 2005, dated 2014).

What was measured:
NOD/SCID mice = assay: In vivo analysis of homing of CFSE-labeled cells to bone marrow
Source text: FIGS. 1a-1i are a graphic representation of flow cytometry analysis of the effect of nicotinamide on homing of hematopoietic stem cells into bone marrow of NOD/SCID mice. Non-cultured mononuclear cells or their entire progeny following 3-week expansion with cytokines and nicotinamide (cytokines+NA), or cytokines alone (cytokines) were labeled with CFSE and infused into sublethally irradiated NOD/SCID mice (10×10^6 cells/mouse for the non-cultured group containing 5×10^4 CD34+ cells and the total progeny of 5×10^4 CD34+ cells following 3-week expansion with or without nicotinamide; 20×10^6 cells/mouse containing 180×10^4 CD34+ cells). FIG. 1a is a histogram of the results of flow cytometry of recipient's bone marrow cells showing homing of CFSE+/CD34+ cells after transplantation. FIG. 1b is a histogram of the results of flow cytometry of recipient's bone marrow cells showing homing of total CFSE+ cells after transplantation. Homing of human cells is presented as number of positive events (cytometry) per 100,000 BM cells analyzed. Each bar represents the average ±SE of 3 independent experiments (6-7 mice/experimental group). […] Total human cells that home to the BM are gated (see area R2) based on low side scatter (y axis) and log fluorescence distribution of CFSC expression (x axis) (FIGS. 1c-1f). The bright fluorescence of CFSE was sufficient to separate labeled human cells from unlabeled murine cells by at least 1 log. Cells gated in R2 were then analyzed for CFSE (x axis) and CD34-APC (y axis) (FIGS. 1g-1i). […] After labeling, cells were washed three times in PBS supplemented with 10% FCS and analyzed by flow cytometry for fluorescence intensity, then injected intravenously into sublethally irradiated NOD/SCID mice (10-20 million cells per mouse). […] Homing of human cells was detected by flow cytometry via visualization of CFSE-stained cells over a background of unlabeled murine cells. The bright fluorescence of CFSE was sufficient to separate labeled human cells from unlabeled murine cells by at least 1 log. […]

CD34+ cells = assay: In vitro transwell migration assay, CXCL12-induced; type: cell-based, human; settings: CXCL12 100 ng/ml, 4 hours, CD34+ cells after 3-week culture with cytokines+NA, compared to cytokines alone or non-cultured cells
Description: FIG. 2 is a histogram showing the effect of nicotinamide on in-vitro migration of hematopoietic cells. CXCL12 (100 ng/ml)-induced transwell migration of the purified CD34+ cells either before (non-cultured) or after 3-week culture with cytokines and nicotinamide (cytokines+NA) or cytokines alone (cytokines) (n=3, *p<0.02, **p=0.05) was measured as described hereinbelow. Note the enhanced migration of cells cultured in the presence of nicotinamide; Purified CD34+ cells were cultured in culture bags (American Fluoroseal Co., Gaithersburg, Md.) at 1×10^4 cells/ml in MEMα medium, 10% fetal calf serum (FCS) and cytokines: Thrombopoietin (TPO), interleukin-6 (IL-6), FLT-3 ligand and stem cell factor (SCF), each at a final concentration of 50 ng/ml (Perpo Tech, Inc., Rocky Hill, N.J.), with or without 5 mM nicotinamide (NA) (Sigma Aldrich, Milwaukee, Wis.) and incubated at 37° C. in a humidified atmosphere of 5% CO2 in air. […] Until week 3, the cultures were topped weekly with the same volume of fresh medium and then weekly demi-depopulated. Cell counting, colony forming unit (CFUc) assay and immunophenotype analysis were performed as described hereinbelow. […] After 4 hours, cells were collected from both chambers and counted by flow cytometry (FACSsort, Becton Dickinson and Co, San Jose, Calif., USA). […]

SMILES: NC(=O)c1cccnc1 [nicotinamide]
- homing of CD34+ cells to bone marrow relative to non-cultured CD34+ cells (NOD/SCID mice; 3-week culture with cytokines + nicotinamide, 24 hours post transplantation, n=21, p<0.05): 6 fold
- homing of cultured cells (MNC) compared to nicotinamide-untreated cells (NOD/SCID mice; 3-week culture with cytokines + nicotinamide, total CFSE+ cells, 24 hours post transplantation, n=21, p<0.05): 2 fold
- homing to bone marrow over identical cells cultured without nicotinamide (NOD/SCID mice; summary statement on Example 2, mononuclear cells exposed to nicotinamide before transplantation): sixfold
- CXCL12-induced migration (CD34+ cells): significantly higher
